Assay results reported in paper PMC4821887, “Identification of chemicals that mimic transcriptional changes associated with autism, brain aging and neurodegeneration” (Nature Communications, 2016).

Tested on: mouse cortical cultures
Assay: RNA-seq differential expression (DESeq) against matched vehicle
Format: cell-based
Parameters: key to MeanFenamidone Bcl11b / MeanFenamidone Slc12a4 / MeanFenamidone Abca1 / MeanFenamidone Hmox1 / MeanFenamidone Il1rap / MeanFenamidone Cyba / MeanFenamidone Narf / MeanFenamidone Bnip3 / MeanFenamidone Amotl2 / MeanFenamidone Gad2 / MeanFenamidone Vsnl1 / MeanFenamidone Fam178a: DESeq mean of counts over RefSeq exons
Details: for MeanFenamidone (DESeq mean normalized counts): Fenamidone, vs matched vehicle
Protocol: Figure 4 Cluster 2 chemicals alter expression of a common set of genes. […] RNA-seq was performed in quadruplicate after treating cortical cultures with fenamidone (10 μM) or pyraclostrobin (0.1 μM) for 24 h (n=3 biological replicates) and compared with matched vehicle controls using DESeq to detect differentially expressed genes, listed in Supplementary Data 4.
Cultures were treated with the non-cytotoxic dose of each chemical, by exchanging half of the original medium with chemicals at 2 × concentration in prewarmed feeding medium, on DIV 7 for 24 h in 12-well plates at a density of 5 × 10^5 cells per well. RNA was isolated using RNeasy plus mini kit (Cat. #74134, Qiagen). […]. Samples were further assessed for quality using either an Agilent Bioanalyzer 2100 or TapeStation 2200 to obtain a RIN. RIN values exceeding 7 were used for sequencing. RNA samples were used to generate and barcode complementary DNA libraries using the TruSeq RNA Library Preparation Kit at the UNC High Throughput Sequencing Facility. Pools of 24 multiplexed samples were sequenced per lane on an Illumina HiSeq 2500 using 50-bp paired-end reads.
RNA-seq reads were filtered using TagDust and aligned to the reference mouse genome (mm9) with TopHat using default parameters. Reads aligning to ribosomal RNA genes were removed. Transcript abundance was estimated by computing Reads per kilobase per million mapped reads (RPKM) using RefSeq gene models aggregated by gene symbol. For differential expression analyses, raw counts over RefSeq exons were used, and then were compared across samples using DESeq[62].

Compound: CSC1=N[C@@](C)(c2ccccc2)C(=O)N1Nc1ccccc1 [fenamidone]
- log2FoldChange (gene Prss23): 2.578
- MeanFenamidone Ptpn14 (gene Ptpn14, DESeq mean, 4 reps): 536.253
- log2FoldChange Ptpn14 (gene Ptpn14, vs vehicle, 4 reps): 2.06
- MeanFenamidone (gene Ptpro): 128.9
- log2FoldChange (gene Ptpro): -1.349
- MeanFenamidone (gene Rab6b): 1528.43
- log2FoldChange (gene Rab6b): -1.231
- MeanFenamidone Rian (gene Rian, DESeq mean, 4 reps): 479.419
- log2FoldChange Rian (gene Rian, vs vehicle, 4 reps): -1.772
- MeanFenamidone Rimkla (gene Rimkla, DESeq mean, 4 reps): 54.5497
- log2FoldChange Rimkla (gene Rimkla, vs vehicle, 4 reps): -1.586
- MeanFenamidone Rph3a (gene Rph3a, DESeq mean, 4 reps): 62.2069
- log2FoldChange Rph3a (gene Rph3a, vs vehicle, 4 reps): -2.0001
- MeanFenamidone (gene Rsu1): 240.928
- log2FoldChange (gene Rsu1): 1.174
- MeanFenamidone Samd4 (gene Samd4, DESeq mean, 4 reps): 336.652
- log2FoldChange Samd4 (gene Samd4, vs vehicle, 4 reps): 1.621
- MeanFenamidone Scn2a1 (gene Scn2a1, DESeq mean, 4 reps): 402.156
- log2FoldChange Scn2a1 (gene Scn2a1, vs vehicle, 4 reps): -1.491
- MeanFenamidone Sdc1 (gene Sdc1, DESeq mean, 4 reps): 327.963
- log2FoldChange Sdc1 (gene Sdc1, vs vehicle, 4 reps): 1.6746
- MeanFenamidone (gene Sdc3): 1856.44
- log2FoldChange (gene Sdc3): -1.095
- MeanFenamidone Serpine2 (gene Serpine2, DESeq mean, 4 reps): 777.193
- log2FoldChange Serpine2 (gene Serpine2, vs vehicle, 4 reps): 1.421
- MeanFenamidone (DESeq mean normalized counts) (gene Serpinf1, 4 reps): 51.7434
- MeanFenamidone Serpini1 (gene Serpini1, DESeq mean, 4 reps): 255.176
- log2FoldChange Serpini1 (gene Serpini1, vs vehicle, 4 reps): -1.567
- MeanFenamidone (gene Sgpl1): 504.223
- log2FoldChange (gene Sgpl1): 1.381
- MeanFenamidone Shank1 (gene Shank1, DESeq mean, 4 reps): 288.972
- log2FoldChange Shank1 (gene Shank1, vs vehicle, 4 reps): -1.584
- MeanFenamidone (gene Shmt2): 164.927
- log2FoldChange (gene Shmt2): 1.37
- MeanFenamidone Slc3a2 (gene Slc3a2, DESeq mean, 4 reps): 1206
- log2FoldChange Slc3a2 (gene Slc3a2, vs vehicle, 4 reps): 1.496
- MeanFenamidone (gene Slc4a2): 227.842
- log2FoldChange (gene Slc4a2): 1.898
- MeanFenamidone Slc5a3 (gene Slc5a3, DESeq mean, 4 reps): 905.314
- log2FoldChange Slc5a3 (gene Slc5a3, vs vehicle, 4 reps): 1.342
- MeanFenamidone Slc8a3 (gene Slc8a3, DESeq mean, 4 reps): 22.3077
- log2FoldChange Slc8a3 (gene Slc8a3, vs vehicle, 4 reps): -2.167
- MeanFenamidone Slc12a4 (gene Slc12a4, DESeq mean, 4 reps): 353.466
- log2FoldChange Slc12a4 (gene Slc12a4, vs vehicle, 4 reps): 2.575
- MeanFenamidone Slc12a5 (gene Slc12a5, DESeq mean, 4 reps): 198.315
- log2FoldChange Slc12a5 (gene Slc12a5, vs vehicle, 4 reps): -1.614
- MeanFenamidone (gene Slc12a7): 123.511
- log2FoldChange (gene Slc12a7): 2.012
- MeanFenamidone Slc32a1 (gene Slc32a1, DESeq mean, 4 reps): 76.5704
- log2FoldChange Slc32a1 (gene Slc32a1, vs vehicle, 4 reps): -1.6789
- MeanFenamidone (gene Slit2): 473.475
- log2FoldChange (gene Slit2): 1.336
- MeanFenamidone (gene Slitrk3): 59.0221
- log2FoldChange (gene Slitrk3): -1.399
- MeanFenamidone Smpd3 (gene Smpd3, DESeq mean, 4 reps): 450.951
- log2FoldChange Smpd3 (gene Smpd3, vs vehicle, 4 reps): -1.523
- MeanFenamidone (gene Snap91): 577.837
- log2FoldChange (gene Snap91): -1.2276
- MeanFenamidone Snx33 (gene Snx33, DESeq mean, 4 reps): 193.085
- log2FoldChange Snx33 (gene Snx33, vs vehicle, 4 reps): 2.21
- MeanFenamidone (gene Sorl1): 374.526
- log2FoldChange (gene Sorl1): 1.703
- MeanFenamidone Spock3 (gene Spock3, DESeq mean, 4 reps): 49.3806
- log2FoldChange Spock3 (gene Spock3, vs vehicle, 4 reps): -2.6448
- MeanFenamidone Sprn (gene Sprn, DESeq mean, 4 reps): 108.373
- log2FoldChange Sprn (gene Sprn, vs vehicle, 4 reps): -1.675
- MeanFenamidone Srxn1 (gene Srxn1, DESeq mean, 4 reps): 1016.41
- log2FoldChange Srxn1 (gene Srxn1, vs vehicle, 4 reps): 2.241
- MeanFenamidone (gene Ssc5d): 60.5262
- log2FoldChange (gene Ssc5d): 1.812
- MeanFenamidone Ssfa2 (gene Ssfa2, DESeq mean, 4 reps): 339.098
- log2FoldChange Ssfa2 (gene Ssfa2, vs vehicle, 4 reps): 1.684
- MeanFenamidone (gene St8sia1): 138.691
- log2FoldChange (gene St8sia1): -1.185
- MeanFenamidone St8sia3 (gene St8sia3, DESeq mean, 4 reps): 218.799
- log2FoldChange St8sia3 (gene St8sia3, vs vehicle, 4 reps): -1.589
- MeanFenamidone (gene St8sia4): 83.2874
- log2FoldChange (gene St8sia4): -1.239
- MeanFenamidone (gene Sult4a1): 337.631
- log2FoldChange (gene Sult4a1): -1.1579
- MeanFenamidone Sv2b (gene Sv2b, DESeq mean, 4 reps): 206.444
- log2FoldChange Sv2b (gene Sv2b, vs vehicle, 4 reps): -1.8053
- MeanFenamidone (DESeq mean normalized counts) (gene Svil, 4 reps): 63.1892
- MeanFenamidone Syn2 (gene Syn2, DESeq mean, 4 reps): 290.905
- log2FoldChange Syn2 (gene Syn2, vs vehicle, 4 reps): -1.354
- MeanFenamidone Syp (gene Syp, DESeq mean, 4 reps): 891.603
- log2FoldChange Syp (gene Syp, vs vehicle, 4 reps): -1.4647
- MeanFenamidone Syt1 (gene Syt1, DESeq mean, 4 reps): 825.321
- log2FoldChange Syt1 (gene Syt1, vs vehicle, 4 reps): -1.819
- MeanFenamidone Tagln (gene Tagln, DESeq mean, 4 reps): 2032.34
- log2FoldChange Tagln (gene Tagln, vs vehicle, 4 reps): 3.012
- MeanFenamidone Tead1 (gene Tead1, DESeq mean, 4 reps): 925.254
- log2FoldChange Tead1 (gene Tead1, vs vehicle, 4 reps): 2.035
- MeanFenamidone Tgfb2 (gene Tgfb2, DESeq mean, 4 reps): 420.529
- log2FoldChange Tgfb2 (gene Tgfb2, vs vehicle, 4 reps): 1.82
- MeanFenamidone Tgfb3 (gene Tgfb3, DESeq mean, 4 reps): 398.538
- log2FoldChange Tgfb3 (gene Tgfb3, vs vehicle, 4 reps): 2.304
- MeanFenamidone Thbs1 (gene Thbs1, DESeq mean, 4 reps): 3138.32
- log2FoldChange Thbs1 (gene Thbs1, vs vehicle, 4 reps): 2.61
- MeanFenamidone Tln1 (gene Tln1, DESeq mean, 4 reps): 658.354
- log2FoldChange Tln1 (gene Tln1, vs vehicle, 4 reps): 2.579
- MeanFenamidone Tmbim1 (gene Tmbim1, DESeq mean, 4 reps): 170.347
- log2FoldChange Tmbim1 (gene Tmbim1, vs vehicle, 4 reps): 2.378
- MeanFenamidone (gene Tmem181b-ps): 77.9777
- log2FoldChange (gene Tmem181b-ps): -1.325
- MeanFenamidone (gene Tmem229b): 256.203
- log2FoldChange (gene Tmem229b): -1.123
- MeanFenamidone Tnc (gene Tnc, DESeq mean, 4 reps): 998.798
- log2FoldChange Tnc (gene Tnc, vs vehicle, 4 reps): 2.934
- MeanFenamidone Tnfrsf10b (gene Tnfrsf10b, DESeq mean, 4 reps): 126.269
- log2FoldChange Tnfrsf10b (gene Tnfrsf10b, vs vehicle, 4 reps): 2.1709
- MeanFenamidone Tnfrsf12a (gene Tnfrsf12a, DESeq mean, 4 reps): 307.752
- log2FoldChange Tnfrsf12a (gene Tnfrsf12a, vs vehicle, 4 reps): 3.087
- MeanFenamidone (gene Tns1): 238.258
- log2FoldChange (gene Tns1): 2.58
- MeanFenamidone Tpm4 (gene Tpm4, DESeq mean, 4 reps): 930.727
- log2FoldChange Tpm4 (gene Tpm4, vs vehicle, 4 reps): 1.809
- MeanFenamidone Tpp1 (gene Tpp1, DESeq mean, 4 reps): 440.575
- log2FoldChange Tpp1 (gene Tpp1, vs vehicle, 4 reps): 1.842
- MeanFenamidone (gene Tro): 343.733
- log2FoldChange (gene Tro): -1.218
- MeanFenamidone (gene Tspyl4): 870.895
- log2FoldChange (gene Tspyl4): -1.118
- MeanFenamidone Tuba4a (gene Tuba4a, DESeq mean, 4 reps): 131.218
- log2FoldChange Tuba4a (gene Tuba4a, vs vehicle, 4 reps): -1.604
- MeanFenamidone Tubb6 (gene Tubb6, DESeq mean, 4 reps): 522.566
- log2FoldChange Tubb6 (gene Tubb6, vs vehicle, 4 reps): 2.127
- MeanFenamidone Tuft1 (gene Tuft1, DESeq mean, 4 reps): 71.0226
- log2FoldChange Tuft1 (gene Tuft1, vs vehicle, 4 reps): 2.58
- MeanFenamidone Txnrd1 (gene Txnrd1, DESeq mean, 4 reps): 1365.85
- log2FoldChange Txnrd1 (gene Txnrd1, vs vehicle, 4 reps): 1.713
- MeanFenamidone Uap1l1 (gene Uap1l1, DESeq mean, 4 reps): 115.372
- log2FoldChange Uap1l1 (gene Uap1l1, vs vehicle, 4 reps): 2.463
- MeanFenamidone (gene Vash1): 501.714
- log2FoldChange (gene Vash1): -1.142
- MeanFenamidone Vasn (gene Vasn, DESeq mean, 4 reps): 270.313
- log2FoldChange Vasn (gene Vasn, vs vehicle, 4 reps): 2.194
- MeanFenamidone Vcl (gene Vcl, DESeq mean, 4 reps): 498.388
- log2FoldChange Vcl (gene Vcl, vs vehicle, 4 reps): 2.095
- MeanFenamidone Vgll3 (gene Vgll3, DESeq mean, 4 reps): 231.289
- log2FoldChange Vgll3 (gene Vgll3, vs vehicle, 4 reps): 2.348
- MeanFenamidone (gene Vim): 6511.9
- log2FoldChange (gene Vim): 1.994
- MeanFenamidone Vsnl1 (gene Vsnl1, DESeq mean, 4 reps): 216.784
- log2FoldChange Vsnl1 (gene Vsnl1, vs vehicle, 4 reps): -1.6854
- MeanFenamidone Wls (gene Wls, DESeq mean, 4 reps): 676.758
- log2FoldChange Wls (gene Wls, vs vehicle, 4 reps): 1.397
- MeanFenamidone Wnk1 (gene Wnk1, DESeq mean, 4 reps): 1955.12
- log2FoldChange Wnk1 (gene Wnk1, vs vehicle, 4 reps): 1.378
- MeanFenamidone Xkr4 (gene Xkr4, DESeq mean, 4 reps): 97.5483
- log2FoldChange Xkr4 (gene Xkr4, vs vehicle, 4 reps): -1.595
- MeanFenamidone (gene Zak): 216.098
- log2FoldChange (gene Zak): 1.697
- MeanFenamidone (gene Zbtb7b): 137.122
- log2FoldChange (gene Zbtb7b): 2.108
- MeanFenamidone Zfp36l2 (gene Zfp36l2, DESeq mean, 4 reps): 339.831
- log2FoldChange Zfp36l2 (gene Zfp36l2, vs vehicle, 4 reps): 2.067
